According to patent publication US8232278B2 (Gilead Sciences, Inc., priority 2005, dated 2012):
Where two headings read alike, the source gives them in different places.

Legend:
HCV replicon = experiment: Anti-HCV assay / replicon assay (EC50, luciferase read-out); type: cell-based, hepatitis C virus (HCV); settings: for CC50/EC50: CC50/EC50 ratio (selectivity index); for EC50: human hepatoma Huh-7 cell line harbouring a HCV replicon, 3 days, luciferase luminescence, read-out: EC50
Procedure: (§1) The anti-HCV activity of the pyrido[3,2-d]pyrimidine derivatives of this invention was tested in a human hepatoma Huh-7 cell line harbouring a HCV replicon. The assay comprised the following steps:
(§2) Step 1: Compound Preparation and Serial Dilution
(§3) • 1. for water soluble pyrido[3,2-d]pyrimidine derivatives, a volume of 500 μL of solution in cell media (DMEM, 10% FBS, P/S, L-Glutamine) was prepared with a concentration being twice the concentration of the starting final serial dilution concentration. […] The rest of the plate, columns 2-12, was filled with 100 μL of cell media. The plate was then placed on a Precision 2000 Workstation to start the serial dilution. Compounds were diluted three times each step from column 1 to column 10. Column 11 was used as a blank control (no compound added). • 2. for pyrido[3,2-d]pyrimidine derivatives requiring DMSO to dissolve, serial dilution is performed in 50% DMSO in a 384-well plate. A solution containing a compound at 100-fold concentration of the starting final serial dilution concentration was prepared in 50% DMSO and added to the pre-specified wells in column 1 of a polypropylene 384-well plate. The plate was then placed on a Precision 2000 Workstation to start the serial dilution. After the serial dilution, a volume of 2 μL of the solution was transferred from the 384-well plate to a 96-well cell culture plate containing 100 μL of cell media on a Biomek FX Workstation. The DMSO concentration in the final assay condition was 0.5% after cells are added to the plate and the total volume in each well is brought to 200 μL. Step 2: to each well of the serial dilution plate prepared above, 100 μL of cell media containing 6000 suspended Huh-7 HCV replicon cells was added with a Multidrop workstation. The plates were incubated for 3 days at 37° C. with 5% CO2. Step 3: Detection: • a) for the EC50 assay, the media in a 96-well cell culture plate was aspirated with a Biotek EL405 plate-washer. A volume of 200 μL of a solution containing a 1:1 mixture of cell-lysis buffer (Promega, Luciferase Cell Culture Lysis 5× Reagent, cat. #E1531) and luciferase substrate solution (Promega, Luciferase Assay, cat. #E4550) was added to each well of the plate with Multidrop.
(§4) Results in table 7 are expressed by the following data: • the 50% effective concentration (EC50), i.e. the concentration that protects 50% of the cell monolayer from virus-induced cythopathic effect, and • the 50% cytostatic concentration (CC50), i.e. the concentration that results in 50% inhibition of cell growth. Table 7 further indicates the nature of substituents being present in positions 2, 4 and 6 of the pyrido[3,2-d]pyrimidine derivatives of the invention.

Huh-7 HCV replicon cells = experiment: CC50 assay in Huh-7 HCV replicon cells (CellTiter-Glo); type: cell-based, human; settings: 3 days, 50% cytostatic concentration
Procedure: as §1, §2, §3, §4

Row | Compound | CC50/EC50 (HCV replicon) | EC50 (HCV replicon) [nM] | CC50 (Huh-7 HCV replicon cells) [nM] | EC50 (HCV replicon; Hepatitis C virus, 72 h) [nM]
1 | 2-amino-4-(phenoxy-ethyl-piperazin-1-yl)-6-(3,4-dimethoxyphenyl)-pyrido[3,2-d]pyrimidine [Example 50] | 310 | 58 | 18000 | –
2 | 2-amino-4-[(N-3-chloro-phenyl-carbamoyl)-piperazin-1-yl]-6-(3-fluoro-4-ethoxyphenyl)pyrido-[3,2-d]pyrimidine [Example 171] | 101 | 15 | 1500 | –
3 | 2-amino-4-[(N-3-chloro-phenyl-carbamoyl)-piperazin-1-yl]-6-(3-methyl-4-methoxy-phenyl)pyrido-[3,2-d]pyrimidine [Example 168] | 97 | 27 | 2600 | –
4 | 2-amino-4-[N-3-chloro-phenyl-carbamoyl)-piperazin-1-yl]-6-(3,4-(methylenedioxy)phenyl)pyrido[3,2-d]pyrimidine [Example 173] | 143 | 24 | 3400 | –
5 | 4-[(N-4-chloro-phenylcarbamoyl)-piperazin-1-yl]-6-(3-methyl-4-methoxyphenyl)-pyrido[3,2-d]pyrimidine [Example 121] | 162 | 120 | 19400 | –
6 | 4-ethoxy-6-(3-fluoro-4-methoxy-phenyl)-pyrido[3,2-d]pyrimidin-2-ylamine [Example 459] | 78 | 320 | 25100 | –
7 | 4-ethoxy-6-(4-methoxy-phenyl)-pyrido[3,2-d]pyrimidin-2-ylamine [Example 461] | 93 | 270 | 25100 | –
8 | COc1ccc(-c2ccc3nc(C)nc(N4CCN(C(=O)Nc5cccc(C)c5)CC4)c3n2)cc1OC [Example 11] | 98 | 75 | 7300 | –
9 | COc1ccc(-c2ccc3nc(Cl)nc(N4CCN(C(=O)Nc5cccc(C)c5)CC4)c3n2)cc1OC [Example 14] | 167 | 150 | 25100 | –
10 | COc1ccc(-c2ccc3nc(OCCOc4ccccc4)nc(N4CCN(C(=O)Nc5cccc(C)c5)CC4)c3n2)cc1OC [Example 19] | 52 | 480 | 25100 | –
11 | COc1ccc(-c2ccc3nc(N)nc(Nc4cccc(C)c4)c3n2)cc1OC [Example 32, 2-amino-4-(3-methyl-anilino)-6-(3,4-dimethoxyphenyl)-pyrido[3,2-d]pyrimidine] | 195 | – | 50100 | 258
12 | COc1ccc(-c2ccc3nc(N)nc(Nc4ccc5c(c4)OCO5)c3n2)cc1OC [Example 33, 2-amino-4-[3,4-(methylenedioxy)aniline]-6-(3,4-dimethoxyphenyl)pyrido[3,2-d]pyrimidine] | 636 | 8 | 4800 | –
13 | COc1ccc(-c2ccc3nc(N)nc(NCCN4CCOCC4)c3n2)cc1OC [Example 38, 2-amino-4-[4-(2-aminoethyl)morpholino]-6-(3,4-dimethoxyphenyl)-pyrido[3,2-d]pyrimidine] | 151 | 47 | 7100 | –
14 | COc1ccc(-c2ccc3nc(N)nc(N4CCN(c5ccccn5)CC4)c3n2)cc1OC [Example 52, 2-amino-4-(2-pyridyl-piperazin-1-yl)-6-(3,4-dimethoxyphenyl)-pyrido[3,2-d]pyrimidine] | 72 | 42 | 3000 | –
15 | COc1ccc(-c2ccc3nc(N)nc(N4CCN(Cc5ccc6c(c5)OCO6)CC4)c3n2)cc1OC [Example 55, 2-amino-4-(1-piperonyl-piperazin-1-yl)-6-(3,4-dimethoxyphenyl)-pyrido[3,2-d]pyrimidine] | 74 | 340 | 25100 | –
16 | COc1ccc(-c2ccc3nc(N)nc(N4CCN(Cc5ccccc5)CC4)c3n2)cc1OC [Example 57, 2-amino-4-(1-benzylpiperazin-1-yl)-6-(3,4-dimethoxyphenyl)-pyrido[3,2-d]pyrimidine] | 546 | 45 | 24600 | –
17 | COc1ccc(-c2ccc3nc(N)nc(N4CCN(C(=O)Nc5cccc(Cl)c5)CC4)c3n2)cc1OC [Example 63, 2-amino-4(N-3-chloro-phenyl-carbamoyl-piperazin-1-yl)-6-(3,4-dimethoxyphenyl)-pyrido[3,2-d]pyrimidine] | 106 | 7 | 700 | –
18 | COc1ccc(-c2ccc3nc(N)nc(N4CCN(C(=O)COc5ccccc5)CC4)c3n2)cc1OC [Example 65, 2-amino-4[(N-phenoxy-acetyl)-piperazin-1-yl]-6-(3,4-dimethoxyphenyl)-pyrido[3,2-d]pyrimidine] | 90 | 280 | 25100 | –
19 | Cc1ccc(-c2ccc3ncnc(N4CCN(C(=O)Nc5cccc(Cl)c5)CC4)c3n2)cc1C [Example 84] | 167 | 130 | 21800 | –
20 | O=C(Nc1cccc(Cl)c1)N1CCN(c2ncnc3ccc(-c4ccc5c(c4)OCO5)nc23)CC1 [Example 85, 4-[(N-3-chlorophenylcarbamoyl)-piperazin-1-yl]-6-(3,4-methylenedioxy)phenyl-pyrido[3,2-d]pyrimidine] | 64 | 19 | 1200 | –
21 | CCOc1ccc(-c2ccc3ncnc(N4CCN(C(=O)Nc5cccc(Cl)c5)CC4)c3n2)cc1Cl [Example 86] | 100 | 250 | 25100 | –
22 | COc1ccc(-c2ccc3nc(Nc4ccc(C)cc4)nc(N4CCN(C(=O)Nc5cccc(C)c5)CC4)c3n2)cc1OC [Example 94, 2-(p-tolylamino)-4-[(N-3-methylphenylcarbamoyl)-piperazin-1-yl]-6-(3,4-dimethoxy-phenyl)-pyrido[3,2-d]pyrimidine] | 339 | 74 | 25100 | –
23 | COc1cc(-c2ccc3nc(N)nc(N4CCN(C(=O)Nc5ccc(F)cc5)CC4)c3n2)ccc1OC(C)C [Example 106, 2-amino-4-[(N-4-fluoro-phenyl-carbamoyl)-piperazin-1-yl]-6-(4-isopropoxy-3-methoxy-phenyl)-pyrido[3,2-d]pyrimidine] | 102 | 35 | 3600 | –
24 | COc1cc(-c2ccc3ncnc(N4CCN(C(=O)Nc5cccc(Cl)c5)CC4)c3n2)ccc1OC(C)C [Example 124] | 71 | 35 | 2500 | –
25 | Nc1nc(N2CCOCC2)c2nc(-c3ccc4c(c3)OCO4)ccc2n1 [Example 180, 2-amino-4-morpholino-6-(3,4-(methylenedioxy)phenyl)pyrido[3,2-d]pyrimidine] | 167 | 150 | 25100 | –
26 | Nc1nc(N2CCN(C(=O)COc3ccc(Cl)cc3)CC2)c2nc(-c3ccc(Cl)c(Cl)c3)ccc2n1 [Example 188, 2-amino-4-[N-(4-chlorophenoxy-acetyl)-piperazin-1-yl]-6-(3,4-dichlorophenyl)-pyrido[3,2-d]pyrimidine] | 211 | 58 | 12300 | –
27 | Nc1nc(N2CCN(C(=O)COc3ccc(Cl)cc3)CC2)c2nc(-c3ccc4c(c3)OCCO4)ccc2n1 [Example 189, 2-amino-4-[N-(4-chlorophenoxy-acetyl)-piperazin-1-yl]-6-(1,4-benzodioxane)-pyrido[3,2-d]pyrimidine] | 50 | 9 | 430 | –
